In the NIST ThermoML archive (doi:10.1016/j.jct.2006.01.007):

Assay: xn = mol fraction of the nth substance listed
Conditions: 101 kPa, Liquid; for speed of sound: Sing-around technique in a fixed-path interferometer

CC(C)(C)O [2-methylpropan-2-ol] + O
x2 = 0.9615
Conditions	mass density [kg/m3]	speed of sound [m/s]
288.15 K	980.2	1613.7
293.15 K	978.4	1612.4
298.15 K	976.6	1610
303.15 K	973.6	1606.5
308.15 K	971.5	1602.5
313.15 K	968.8	1597

C[S+](C)[O-] [dimethyl sulfoxide] + O
x1 = 0.0385
Conditions	mass density [kg/m3]	speed of sound [m/s]
288.15 K	1019.8	1555.2
293.15 K	1018.1	1562.5
298.15 K	1016.2	1568.5
303.15 K	1014.4	1573.4
308.15 K	1012.3	1577
313.15 K	1010.2	1579.4
